Data from patent US20250188078A1, “SMALL MOLECULE INHIBITORS OF THE CRL4 UBIQUITIN LIGASE” (Cornell University, priority 2022, published 2025).
Like-named read-outs stand apart in the source and are kept apart here.

Key:
[1] = target: CUL4A-DDB1-BPB interaction (Homo sapiens (Human), UniProt Q16531); assay: AlphaLISA in vitro binding assay, CUL4A and DDB1-BPB binding; settings: inhibition of CUL4A and DDB1-BPB binding
Summary of the method: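 Compound disruption of CUL4A binding to DDB1-BPB measured by AlphaLISA/AlphaScreen bead proximity in 384-well format. IC50 from nonlinear log(inhibitor)-vs-response curve fit.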

[2] = system: CUL4A^high MDA-MB-468 breast cancer cells; assay: Cell killing in CUL4-high MDA-MB-468 cells (CellTiter Glo); type: cell-based; settings: Homo sapiens, 8 days treatment
Summary of the method: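 Cells seeded, treated after 24 h with DMSO or compound (0 to 20 μM). Medium and compound replaced every 48 h over 8 days. Viability measured by CellTiter-Glo luminescence; EC50 (50% killing) from log(inhibitor) vs response nonlinear fit.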

[3] = target: DDB1-BPB (Homo sapiens (Human), UniProt Q16531); assay: Microscale Thermophoresis (MST) binding to DDB1-BPB; settings: labeled DDB1-BPB, 25° C.
Sequence of DDB1-BPB (Q16531 403-706): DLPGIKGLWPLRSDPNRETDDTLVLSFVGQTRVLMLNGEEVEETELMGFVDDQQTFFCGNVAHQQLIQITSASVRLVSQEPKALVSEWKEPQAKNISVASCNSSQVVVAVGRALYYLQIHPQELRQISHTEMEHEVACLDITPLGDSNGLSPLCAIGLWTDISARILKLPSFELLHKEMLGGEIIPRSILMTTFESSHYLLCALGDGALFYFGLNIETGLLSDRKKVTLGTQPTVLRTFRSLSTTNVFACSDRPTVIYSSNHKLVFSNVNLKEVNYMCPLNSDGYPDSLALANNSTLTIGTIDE
Experimental: Kd represents dissociation constant, which measures the affinity of small molecule binding to the scaffold DDB1-BPB by Microscale Thermophoresis (MST) (see Table 1, column 9). MST experiments were performed on a Monolith NT 115 system (Nano Temper Technologies, Munich, Germany) using 100% LED and 60% IR-laser power (https://physiology.case.edu/media/eq manuals/eq_manual_nano-temper_mst_starting_guide.pdf, hereby incorporated by reference in its entirety for all purposes). The labeling of DDB1-BPB ([…]) was performed in labeling buffer with NHS-Red reactive dye (30 μM) (Nanotemper), which reacts efficiently with the primary amines of the proteins to form a stable dye protein conjugates. The labeling reaction was carried out at RT. A 16-point serial dilution (1:1) was prepared for compound at the final concentration ranged from 200 µM to 3 nM in PBS containing 0.05% tween. The samples were filled into Premium capillaries and measurements were conducted at 25° C. An equation implemented by the software MO-S002 MO Affinity Analysis, provided by the manufacturer, was used for fitting normalized fluorescence values at different concentrations of ligands.

[4] = system: CUL4A-Vpr-dependent UNG2 degradation in Hela DOX-inducible-Vpr cells; assay: DOX-induced Vpr-mediated CUL4-dependent UNG2 degradation (Western blot); type: cell-based; settings: FIG. 6C
Experimental: FIG. 6C. Inhibition of DOX-induced Vpr-mediated CUL4-dependent UNG2 degradation by small molecule CUL4 inhibitors. In brief, Hela DOX-inducible-Vpr cells were seeded in 6-well plates. After 24 hours incubation, medium was changed to growth medium with 75 ng/ml doxycycline (DOX) overnight. On the third day, DMSO or indicated concentrations of compounds in serum-free medium containing DOX were added. The cells were lysed in buffer containing 150 mM NaCl, 1% SDS, 10 mM Tris-HCl (pH 6.8), 1× complete protease inhibitor cocktail and 10 U Benzo nuclease. Equal amounts of proteins were resolved on 9% SDS-PAGE gel and UNG2 levels were detected using anti-UNG2 (2C12) antibody (Origene #TA503563). α-tubulin (Proteintech, #66031-1-Ig) was used as an internal control. Normalized UNG2/α-tubulin ratio is higher in the compound treated sample than DMSO treated sample. (−) means that no change happens between compound treated sample with control sample.

[5] = system: CUL1-dependent IκB-α degradation in Hela cells; assay: TNFα-induced CUL1/SCF-dependent IκBα degradation assay (Western blot); type: cell-based; settings: FIG. 6D
Experimental: FIG. 6D Western blotting of TNFα-induced […] IκBα degradation assay. Hela cells were seeded in 6-well plates. After 24 hours incubation, DMSO or indicated concentration of compounds were added with serum-free medium for 2 hours incubation. TNFα was added and cells were harvested, lysed in buffer containing 150 mM NaCl, 1% SDS, 10 mM Tris-HCl (pH 6.8), 1× complete protease inhibitor cocktail and 10 U Benzo nuclease. Equal amounts of proteins were resolved on 9% SDS-PAGE gel and IκBα levels were detected using anti-IκBα rabbit polyclonal antibody (Proteintech, 10268-1-AP). α-tubulin (Proteintech, #66031-1-Ig) was used as an internal loading control. TNFα-induced IκBα degradation was mediated by CUL1/SCF^βTrCP E3 ligase.

[6] = 192 h, MDA-MB-468 cells, read-out: EC50 CUL4-High Cells (cell killing)

Sequence of CUL4A-DDB1-BPB interaction (Q16531 403-706): as above

| SMILES | IC50 [1] | EC50 [2, 6] | Kd (MST) [3] | Inhibition of CUL4A-Vpr-dependent UNG2 degradation [4] | Inhibition of TNF-α induced CUL1-dependent IκB-α degradation [5] | EC50 ([2]; MDA-MB-468, 192 h, Table 3, 0 to 20 μM compound, read-out: EC50 OF cell killing, MDA-MB-468) | Kd [3] |
| --- | --- | --- | --- | --- | --- | --- | --- |
| CN(c1ccc(-c2nc(C(=O)O)cc3c2[nH]c2ccc(F)cc23)cc1)S(=O)(=O)c1ccccc1 [PA93] | 0.21 ± 0.1 µM | 11.1 µM | Insoluble | robust inhibition | no inhibition |  |  |
| CN(c1ccc(-c2nc(C(=O)O)cc3c2[nH]c2cccc(F)c23)cc1)S(=O)(=O)c1ccccc1 [PA99, 5-fluoro-1-(4-(N-methylphenylsulfonamido)phenyl)-9H-pyrido[3,4-b]indole-3-carboxylic acid] | 0.38 µM | 1.18 µM |  | robust inhibition | no inhibition | 1.18 µM | 2.97 µM |
